Data from patent publication US9980943B2, “Methods of treating muscular dystrophy” (BOARD OF REGENTS OF THE NEVADA SYSTEM OF HIGHER EDUCATION, …, priority 2013, dated 2018).

How the values were obtained:
Format in all cases: cell-based, mouse
[1] = tested on: α7 integrin (LacZ reporter in α7βgal+/− myoblasts); assay: Myoblast α7+/LacZ integrin FDG assay (Burkin assay in myoblasts, 96-well); settings: α7+/LacZ myoblasts, 96-well
[2] = tested on: α7 integrin (LacZ reporter in α7+/LacZ myotubes); assay: Myotube α7 integrin FDG assay (Burkin assay in myotubes, 96-well); settings: myotubes
[3] = tested on: β-galactosidase in CMV-LacZ C2C12 myotubes; assay: CMV-LacZ secondary screen in C2C12 myotubes (β-Gal stabilizing assay); settings: C2C12 CMV-LacZ myotubes, fold relative to DMSO
Summary of the method: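 Dose-response runs at 0.5–40 μM (0.5, 1, 5, 10, 20, 40 μM; N=2 per point) used a clonal C2C12 line carrying CMV-LacZ. Cells were assayed as myoblasts or as differentiated myotubes, and β-galactosidase levels were read with the FDG fluorogenic substrate.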

Row | SMILES | Burkin Assay in Myoblasts, value relative to DMSO ([1]; 0.5 uM) | Burkin Assay in Myoblasts, value relative to DMSO ([1]; 1 uM) | Burkin Assay in Myoblasts, value relative to DMSO ([1]; 5 uM) | Burkin Assay in Myoblasts, value relative to DMSO ([1]; 10 uM) | Burkin Assay in Myoblasts, value relative to DMSO ([1]; 20 uM) | Burkin Assay in Myoblasts, value relative to DMSO ([1]; 40 uM) | Burkin Assay in Myotubes (signal relative to DMSO) ([2]; 0.5 uM) | Burkin Assay in Myotubes (signal relative to DMSO) ([2]; 1 uM) | Burkin Assay in Myotubes (signal relative to DMSO) ([2]; 5 uM) | Burkin Assay in Myotubes (signal relative to DMSO) ([2]; 10 uM) | Burkin Assay in Myotubes (signal relative to DMSO) ([2]; 20 uM) | Burkin Assay in Myotubes (signal relative to DMSO) ([2]; 40 uM) | CMV-LACZ in Myotubes, signal relative to DMSO ([3]; 5 uM) | CMV-LACZ in Myotubes, signal relative to DMSO ([3]; 10 uM) | CMV-LACZ in Myotubes, signal relative to DMSO ([3]; 20 uM) | CMV-LACZ in Myotubes, signal relative to DMSO ([3]; 40 uM) | Burkin Assay in Myoblasts, signal relative to DMSO ([1]; 0.5 uM) | Burkin Assay in Myoblasts, signal relative to DMSO ([1]; 1 uM) | Burkin Assay in Myoblasts, signal relative to DMSO ([1]; 5 uM) | Burkin Assay in Myoblasts, signal relative to DMSO ([1]; 10 uM) | also measured
1 | COc1cc(Cl)cc(CN2CCC(CCC(=O)NC3CC3)CC2)c1OC [MLS001162872-01] | 0.9547 | 0.949 | 0.9025 | 0.904 | 0.783 | 0.7773 | 1.13 | 1.051 | 0.8369 | 1.031 | 1.034 | 0.8876 | 0.7855 | 1.084 | 1.061 | 0.9794 |  |  |  |  | 
2 | O=[N+]([O-])c1ccc(N2CCN(c3ccccc3F)CC2)nc1 [MLS001165749-01] |  |  |  |  |  |  |  |  |  |  |  |  | 0.8271 | 0.9284 | 1.024 | 1.038 | 1.048 | 1.057 | 1.034 | 0.9342 | Burkin Assay in Myoblasts, signal relative to DMSO ([1]; 20 uM): 0.9628; Burkin Assay in Myoblasts, signal relative to DMSO ([1]; 40 uM): 0.7711; Burkin Assay in Myotubes, α7 integrin LacZ reporter signal relative to DMSO ([2]; 0.5 uM): 0.9532; Burkin Assay in Myotubes, α7 integrin LacZ reporter signal relative to DMSO ([2]; 1 uM): 1.078; Burkin Assay in Myotubes, α7 integrin LacZ reporter signal relative to DMSO ([2]; 5 uM): 1.1624; Burkin Assay in Myotubes, α7 integrin LacZ reporter signal relative to DMSO ([2]; 10 uM): 1.122; Burkin Assay in Myotubes, α7 integrin LacZ reporter signal relative to DMSO ([2]; 20 uM): 0.7808; Burkin Assay in Myotubes, α7 integrin LacZ reporter signal relative to DMSO ([2]; 40 uM): 0.7342
3 | COc1ccccc1N(C(=O)CNC(=O)c1ccco1)C(C(=O)NC1CCCCC1)c1ccncc1 (stereo not drawn) [MLS001220669-01] | 1 | 0.9426 | 0.9016 | 0.9605 | 0.8701 | 0.7613 | 0.9722 | 0.978 | 1.0117 | 1.038 | 1.003 | 1.011 | 0.8274 | 0.7701 | 1.0114 | 1 |  |  |  |  | 
4 | O=C(Cn1cccc1C(=O)c1ccccc1)NCCCc1ccccc1 [MLS001110618-01] |  |  |  |  |  |  |  |  |  |  |  |  | 0.8954 | 0.9336 | 1.0555 | 0.4765 | 0.9525 | 1.03 | 0.9228 | 1.005 | Burkin Assay in Myoblasts, signal relative to DMSO ([1]; 20 uM): 0.9713; Burkin Assay in Myoblasts, signal relative to DMSO ([1]; 40 uM): 1.083; Burkin Assay in Myotubes, α7 integrin LacZ reporter signal relative to DMSO ([2]; 0.5 uM): 0.9526; Burkin Assay in Myotubes, α7 integrin LacZ reporter signal relative to DMSO ([2]; 1 uM): 1.067; Burkin Assay in Myotubes, α7 integrin LacZ reporter signal relative to DMSO ([2]; 5 uM): 1.114; Burkin Assay in Myotubes, α7 integrin LacZ reporter signal relative to DMSO ([2]; 10 uM): 1.252; Burkin Assay in Myotubes, α7 integrin LacZ reporter signal relative to DMSO ([2]; 20 uM): 1.0381; Burkin Assay in Myotubes, α7 integrin LacZ reporter signal relative to DMSO ([2]; 40 uM): 0.9463
5 | CC1CCCCC12NC(=O)N(CC(=O)OCc1cccc(F)c1)C2=O (stereo not drawn) [MLS002161350-01] |  |  |  |  |  |  |  |  |  |  |  |  | 0.906 | 0.9679 | 0.8847 | 1.046 | 0.9404 | 0.9236 | 0.9531 | 0.9514 | Burkin Assay in Myoblasts, signal relative to DMSO ([1]; 20 uM): 0.822; Burkin Assay in Myoblasts, signal relative to DMSO ([1]; 40 uM): 0.8262; Burkin Assay in Myotubes, α7 integrin LacZ reporter signal relative to DMSO ([2]; 0.5 uM): 0.9844; Burkin Assay in Myotubes, α7 integrin LacZ reporter signal relative to DMSO ([2]; 1 uM): 1.177; Burkin Assay in Myotubes, α7 integrin LacZ reporter signal relative to DMSO ([2]; 5 uM): 0.7783; Burkin Assay in Myotubes, α7 integrin LacZ reporter signal relative to DMSO ([2]; 10 uM): 0.987; Burkin Assay in Myotubes, α7 integrin LacZ reporter signal relative to DMSO ([2]; 20 uM): 1.049; Burkin Assay in Myotubes, α7 integrin LacZ reporter signal relative to DMSO ([2]; 40 uM): 1.116
6 | c1ccc(-c2cnc(-c3ccccc3)nc2)cc1 [MLS000532078-01] | 1.091 | 1.076 | 0.944 | 0.9431 | 1.09 | 1.077 | 1.0727 | 1.078 | 1.239 | 1.114 | 1.078 | 1.043 | 0.791 | 0.8914 | 0.9443 | 0.8623 |  |  |  |  | 
